From patent US9309179B2 (FAB PHARMA S.A.S., priority 2006, dated 2016)
In brackets after ≈: the same amount, converted by molar mass. Structures can show the parent of a compound that is named as a salt. Where two headings read alike, the source gives them in different places.

Columns and labels:
S. aureus NEM14157 = assay: MIC, broth microdilution; format: cell-based; conditions: Staphylococcus aureus, read-out: MIC S. aureus NEM14157
Description: (§1) The compounds of the present invention are useful antibacterial agents having a selective spectrum of activity in vitro against standard bacterial strains which are used to screen for activity against pathogenic bacteria. […] The activity is presented as Minimum Inhibitory Concentration (MIC) expressed in μg/ml.
(§2) Whole-cell antimicrobial activity was determined by broth microdilution method in microtiterplates. The compound was tested in serial 4-fold dilutions ranging from 0.06 to 64 mcg/mL. Test organisms were selected from the following laboratory strains: Staphylococcus aureus CIP 76.25, Staphylococcus aureus BAA39 MDR, Staphylococcus aureus NEM 14157 PeniR, Staphylococcus aureus CIP 54.146, Escherichia coli CIP 76.24. Bacteria were tested in Tryptic Soy (TS) or Mueller Hinton (MH) broth using an inoculum of 10^4 to 10^6 UFC/mL incubated at 37° C. for 20 h.
(§3) The minimum inhibitory concentration (MIC) was determined as the lowest concentration of compound at which no visible bacteria growth is observed (90% inhibition of absorbance of at […].)

E. coli CIP 76.24 = assay: MIC, broth microdilution; format: cell-based; conditions: Escherichia coli, read-out: MIC E. coli CIP 76.24
Description: as §1, §2, §3

S. aureus BAA39MDR = assay: MIC, broth microdilution; format: cell-based; conditions: Staphylococcus aureus, 20 h, read-out: MIC S. aureus BAA39MDR
Description: as §1, §2, §3

S. aureus CIP 76.25 = assay: MIC, broth microdilution; format: cell-based; conditions: Staphylococcus aureus, read-out: MIC S. aureus CIP 76.25
Description: as §1, §2, §3

[1] = target: T1, recombinant E. coli FabI enzyme (Escherichia coli, UniProt P0AEK4); assay: FabI inhibition, fluorescence-based NADH assay; format: biochemical
T1 construct: 6-His (C); made in house; host or cells: prokaryotic expression vector
T1 sequence (P0AEK4 whole entry): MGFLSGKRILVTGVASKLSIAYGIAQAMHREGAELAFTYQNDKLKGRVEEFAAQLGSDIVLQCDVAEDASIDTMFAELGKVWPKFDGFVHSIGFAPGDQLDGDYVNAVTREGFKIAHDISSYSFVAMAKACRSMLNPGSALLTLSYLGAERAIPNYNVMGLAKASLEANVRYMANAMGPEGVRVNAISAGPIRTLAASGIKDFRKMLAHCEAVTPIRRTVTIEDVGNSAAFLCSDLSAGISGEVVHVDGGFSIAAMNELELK
Description: Compound inhibitory activity of FabI enzyme is measured in vitro by the IC50 determination using a fluorescent based assay.
The protein FabI from E. coli is prepared and purified using standard methods for recombinant protein expression after cloning of the gene in a prokaryotic expression vector.
The biochemical activity of the FabI enzyme is assessed using the following method.
The assay buffer “AB” contains 50 mM Hepes pH7.5, 100 μM Dithiothreitol, 0.006% Triton-X100. The following components are added in a black polystyrene Costar plate up to a final volume of 55 μL: 1.5 μL DMSO, or inhibitor dissolved in DMSO and 53.5 μL of a FabI/NADH/NAD+ mixture in AB. After 60 min of pre-incubation at room temperature, the reaction is started by addition of 5 μL of Crotonoyl-CoA to a final volume of 60 μL. This reaction mixture is then composed of 40 nM FabI (produced in house from E. coli, C-terminal 6-His tagged), 20 μM NADH (Biochemika), 10 μM NAD+ (Biochemika), 50 μM Crotonoyl-CoA (Biochemika) and compound at defined concentration. Fluorescence intensity of NADH (lex=360 nm, lem=520 nm) is measured immediately after Crotonoyl-CoA addition, and 2 hours later by a Fluostar Optima (BMG). Enzyme activity is proportional to the signal decrease from which inhibition percentages are derived. For IC50 determinations, the inhibitor is tested at 6 to 10 different concentrations, and the related inhibitions are fitted to a classical langmuir equilibrium model using XLFIT (IDBS).
In Vitro Inhibition of Recombinant E. coli FabI Enzyme by Selected Compounds of Formula (I).

[2] = NEM14157, broth microdilution, 37° C., 20 h
[3] = CIP76, broth microdilution, 37° C., 20 h
[4] = recombinant E. coli FabI 40 nM, 60 min pre-incubation, NADH fluorescence, read-out: IC50

SMILES	MIC (S. aureus NEM14157; [2]) [µg/mL]	MIC (E. coli CIP 76.24; [3]) [µg/mL]	MIC (S. aureus BAA39MDR; broth microdilution, 37° C.) [µg/mL]	MIC (S. aureus CIP 76.25; [3]) [µg/mL]	further results
CCCc1ccc(Oc2nc(Cl)ccc2N)c(O)c1 [Example 1, 2-[(3-amino-6-chloropyridin-2-yl)oxy]-5-propylphenol]	0.25 (≈ 0.897 µM)	16 (≈ 57.4 µM)	1 (≈ 3.59 µM)	1 (≈ 3.59 µM)	–
CCCc1ccc(Oc2cccc(F)n2)c(O)c1 [Example 5, 2-[(6-fluoropyridin-2-yl)oxy]-5-propylphenol]	0.25 (≈ 1.01 µM)	4 (≈ 16.2 µM)	0.25 (≈ 1.01 µM)	0.25 (≈ 1.01 µM)	IC50 [1, 4]: 0.97 µM
CCCc1ccc(Oc2cccc(N)n2)c(O)c1 [Example 7, 2-[(6-aminopyridin-2-yl)oxy]-5-propylphenol]	–	> 16	–	2 (≈ 8.19 µM)	–
CCCc1ccc(Oc2ccc(OC)cc2)c(O)c1 [Example 16, 2-(4-methoxyphenoxy)-5-propylphenol]	0.25 (≈ 0.968 µM)	4 (≈ 15.5 µM)	0.25 (≈ 0.968 µM)	0.25 (≈ 0.968 µM)	IC50 [1]: 0.51 µM
CCCc1ccc(Oc2cc(F)cc(F)n2)c(O)c1 [Example 25A, 2-[(4,6-difluoropyridin-2-yl)oxy]-5-propylphenol]	–	16 (≈ 60.3 µM)	–	0.25 (≈ 0.942 µM)	–
CCCc1ccc(Oc2cc(F)nc(F)c2)c(O)c1 [Example 25B, 2-[(2,6-difluoropyridin-4-yl)oxy]-5-propylphenol]	0.062 (≈ 0.234 µM)	4 (≈ 15.1 µM)	0.062 (≈ 0.234 µM)	0.062 (≈ 0.234 µM)	IC50 [1]: 0.57 µM
Oc1cc(CC(F)(F)F)ccc1Oc1cccc(F)n1 [Example 27, 2-[(6-fluoropyridin-2-yl)oxy]-5-(2,2,2-trifluoroethyl)phenol]	0.25 (≈ 0.87 µM)	4 (≈ 13.9 µM)	0.25 (≈ 0.87 µM)	0.25 (≈ 0.87 µM)	IC50 [1, 4]: 0.47 µM
Oc1cc(C(F)=C(F)F)ccc1Oc1cccc(F)n1 [Example 28, 2-[(6-fluoropyridin-2-yl)oxy]-5-(trifluorovinyl) phenol]	–	–	–	–	IC50 [1, 4]: 0.85 µM
CCc1ccc(Oc2ccc(C(C)=O)cc2F)c(O)c1 [Example 29, 1-[4-(4-ethyl-2-hydroxyphenoxy)-3-fluorophenyl]ethanone]	0.062 (≈ 0.226 µM)	1 (≈ 3.65 µM)	0.062 (≈ 0.226 µM)	0.062 (≈ 0.226 µM)	IC50 [1]: 0.15 µM
Oc1cc(Cn2cncn2)ccc1Oc1cccc(F)n1 [Example 32, 2-[(6-fluoropyridin-2-yl)oxy]-5-(1H-1,2,4-triazol-1-ylmethyl)phenol]	–	16 (≈ 55.9 µM)	–	4 (≈ 14 µM)	–
CCc1ccc(Oc2ccc(NCCCCO)cc2F)c(O)c1 [Example 37, 5-ethyl-2-{2-fluoro-4-[(4-hydroxybutyl)amino]phenoxy}phenol]	0.25 (≈ 0.783 µM)	4 (≈ 12.5 µM)	0.25 (≈ 0.783 µM)	0.062 (≈ 0.194 µM)	IC50 [1]: 0.41 µM
CCc1ccc(Oc2ccc(OCCCN)cc2F)c(O)c1 [Example 39, 2-[4-(3-aminopropoxy)-2-fluorophenoxy]-5-ethyl phenol]	–	–	–	–	MIC (S. aureus NEM14157; NEM14157, 20 h): 1 µg/mL (≈ 3.27 µM); MIC (E. coli CIP 76.24; CIP76, 20 h): 16 µg/mL (≈ 52.4 µM); MIC (S. aureus BAA39MDR): 1 µg/mL (≈ 3.27 µM); MIC (S. aureus CIP 76.25; CIP76, 20 h): 1 µg/mL (≈ 3.27 µM)
CCc1ccc(Oc2cc(F)ccc2N)c(O)c1 [Example 50, 2-(2-amino-5-fluorophenoxy)-5-ethylphenol]	–	–	–	–	IC50 [1, 4]: 0.3 µM
CCCc1ccc(Oc2cccnc2N)c(O)c1 [Example 55, 2-(2-Aminopyridin-3-yloxy)-5-propylphenol]	–	1 (≈ 4.09 µM)	–	0.25 (≈ 1.02 µM)	IC50 [1]: 0.092 µM
CCc1cc(O)c(Oc2cccc(F)n2)cc1F [Example 57]	–	4 (≈ 15.9 µM)	–	0.25 (≈ 0.995 µM)	IC50 [1]: 1.1 µM
CCc1cc(O)c(Oc2ccc(N)cc2)cc1F [Example 62, 2-(4-aminophenoxy)-5-ethyl-4-fluorophenol]	–	4 (≈ 16.2 µM)	–	0.25 (≈ 1.01 µM)	–
CCc1ccc(Oc2ccc(C(C)=O)cc2F)c(OC(=O)CN)c1 [Example 85, acetate hydrochloride]	–	–	–	–	IC50 [1, 4]: 0.11 µM; MIC (E. coli CIP 76.24; CIP76, 20 h): 1 µg/mL; MIC (S. aureus CIP 76.25; CIP76, 20 h): 0.062 µg/mL
CCc1ccc(Oc2ccc(C(=O)CCCO)cc2)c(O)c1 [Example 86, 1-[4-(4-ethyl-2-hydroxyphenoxy)phenyl]-4-hydroxy butan-1-one]	0.062 (≈ 0.206 µM)	4 (≈ 13.3 µM)	0.062 (≈ 0.206 µM)	0.062 (≈ 0.206 µM)	–
Oc1cc(Cl)ccc1Oc1ccc(Cl)cc1Cl [Triclosan, 5-chloro-2-(2,4-dichloro-phenoxy)-phenol, reference compound]	–	–	–	–	MIC (E. coli CIP 76.24; CIP76, 20 h): 0.25 µg/mL (≈ 0.863 µM); MIC (S. aureus CIP 76.25; CIP76, 20 h): 0.125 µg/mL (≈ 0.432 µM)

Further lines, with some results ahead:

MIC (S. aureus NEM14157; [2]) [µg/mL]	MIC (E. coli CIP 76.24; [3]) [µg/mL]	MIC (S. aureus BAA39MDR; broth microdilution, 37° C.) [µg/mL]	MIC (S. aureus CIP 76.25; [3]) [µg/mL]	SMILES	further results
0.25 (≈ 1.07 µM)	4 (≈ 17.1 µM)	0.25 (≈ 1.07 µM)	0.25 (≈ 1.07 µM)	CCc1ccc(Oc2cccc(F)n2)c(O)c1 [Example 3, 5-ethyl-2-[(6-fluoropyridin-2-yl)oxy]phenol]	–
1 (≈ 3.79 µM)	16 (≈ 60.7 µM)	1 (≈ 3.79 µM)	1 (≈ 3.79 µM)	CCCc1ccc(Oc2cccc(Cl)n2)c(O)c1 [Example 6, 2-[(6-chloropyridin-2-yl)oxy]-5-propylphenol]	–
0.25 (≈ 1.09 µM)	1 (≈ 4.36 µM)	0.25 (≈ 1.09 µM)	0.25 (≈ 1.09 µM)	CCc1ccc(Oc2ccccc2N)c(O)c1 [Example 34, 2-(2-aminophenoxy)-5-ethylphenol]	–
1 (≈ 2.3 µM)	4 (≈ 9.19 µM)	0.25 (≈ 0.574 µM)	0.062 (≈ 0.142 µM)	CCc1ccc(Oc2ccc(OCCCN3C(=O)c4ccccc4C3=O)cc2F)c(O)c1 [Example 38, 2-{3-[4-(4-Ethyl-2-hydroxy-phenoxy)-3-fluoro-phenoxy]-propyl}-isoindole-1,3-dione]	–
–	16 (≈ 54.7 µM)	–	0.25 (≈ 0.855 µM)	CCc1ccc(Oc2ccc(S(C)(=O)=O)cc2)c(O)c1 [Example 47, 5-ethyl-2-[4-(methylsulfonyl)phenoxy]phenol]	–
–	16 (≈ 45.5 µM)	–	1 (≈ 2.85 µM)	CCc1ccc(Oc2ccc(NS(=O)(=O)C3CC3)cc2F)c(O)c1 [Example 52, N-[4-(4-ethyl-2-hydroxyphenoxy)-3-fluorophenyl]cyclopropane sulfonamide]	–
–	1 (≈ 3.21 µM)	–	0.25 (≈ 0.803 µM)	CCc1ccc(Oc2ccc(S(N)(=O)=O)cc2F)c(O)c1 [Example 65, 4-(4-ethyl-2-hydroxyphenoxy)-3-fluorobenzene sulfonamide]	–
–	16 (≈ 47.3 µM)	–	0.25 (≈ 0.739 µM)	CCc1ccc(Oc2ccc(NCc3cccnc3)cc2F)c(O)c1 [Example 66, 5-ethyl-2-{2-fluoro-4-[(pyridin-3-ylmethyl)amino]phenoxy}phenol]	–
–	16 (≈ 45 µM)	–	0.25 (≈ 0.703 µM)	CCc1ccc(Oc2ccc(S(=O)(=O)NCCO)cc2F)c(O)c1 [Example 67, 4-(4-ethyl-2-hydroxyphenoxy)-3-fluoro-N-(2-hydroxyethyl)benzenesulfonamide]	–
–	16 (≈ 40.4 µM)	–	0.25 (≈ 0.631 µM)	CCc1ccc(Oc2ccc(S(=O)(=O)NCCNC(C)=O)cc2F)c(O)c1 [Example 70, N-{2-[4-(4-Ethyl-2-hydroxy-phenoxy)-3-fluoro-benzenesulfonylamino]-ethyl}-acetamide]	–
0.062 (≈ 0.185 µM)	4 (≈ 12 µM)	0.062 (≈ 0.185 µM)	0.062 (≈ 0.185 µM)	CCc1ccc(Oc2ccc(OCCCC(=O)O)cc2F)c(O)c1 [Example 74, 4-[4-(4-Ethyl-2-hydroxy-phenoxy)-3-fluoro-phenoxy]-butyric acid]	–
0.25 (≈ 0.654 µM)	16 (≈ 41.8 µM)	0.25 (≈ 0.654 µM)	0.25 (≈ 0.654 µM)	CCc1ccc(Oc2ccc(NCCCNS(C)(=O)=O)cc2F)c(O)c1 [Example 79, N-methanesulfonyl-N-1-[4-(4-ethyl-2-hydroxyphenoxy)-3-fluorophenyl]propan-1,3-diamine]	–
–	4 (≈ 13.7 µM)	–	0.25 (≈ 0.858 µM)	CCc1ccc(Oc2ccc(NCCO)cc2F)c(O)c1 [Example 81, 5-Ethyl-2-[2-fluoro-4-(2-hydroxyethylamino)-phenoxy]phenol]	–
–	16 (≈ 55.3 µM)	–	0.25 (≈ 0.864 µM)	CCCNc1ccc(Oc2ccc(CC)cc2O)c(F)c1 [Example 82, 5-ethyl-2-[2-fluoro-4-(propylamino)phenoxy]phenol]	–
